The values that follow are results of earlier work, collected in patent US20250231185A1, “Coronavirus T Cell Epitopes, Megapools and Uses Thereof” (La Jolla Institute for Immunology, priority 2021, published 2025).

Entries after “also recorded” stand apart in the source; their conditions may differ.

The series relates to CD4+ T cells. The settings on record: cited from earlier work; for Allele(s): HLA class II allele(s) identified as MHC restriction elements of the CD4 epitope; for Dominant: SARS-CoV-2-derived CD4 epitopes, Yes = recognized by 3 or more donors/different studies; for Restriction: T cell subset (CD4 or CD8) recognizing the SARS-CoV-2 epitope.

For the substance 38 (KEITVATSRTLSYYK) [compound 38], the “Allele(s)” value is “DQB1*06:03, DRB1*03:01,; also recorded: DRB1*07:01, DRB1*14:01,; also recorded: DRB1*14:06, DRB1*15:01,; also recorded: DRB1*16:02”; the Dominant entry is recorded as “Yes (more dominant epitopes are defined by being recognized by 3 or more donors/different studies)”; the Restriction entry is “CD4”.

With 39 (ATSRTLSYYKLGASQ) [compound 39], the “Allele(s)” value is given as “DQB1*05:01, DQB1*05:03,; also recorded: DRB1*16:01” and the Restriction entry is given as “CD4”.

In the case of 40 (TSRTLSYYKLGASQRVA) [compound 40], the Dominant entry is listed as “Yes (more dominant epitopes are defined by being recognized by 3 or more donors/different studies)” and the Restriction entry is given as “CD4”.

On to 41 (SRTLSYYKLGASQRV) [compound 41], for which the “Allele(s)” value is given as “DRB5*01:01, DRB5*01:02”; the Dominant result is “Yes (more dominant epitopes are defined by being recognized by 3 or more donors/different studies)”; the Restriction entry was “CD4”.

On to 43 (SYYKLGASQRVAGDS) [compound 43], for which the “Allele(s)” value was “DQB1*03:01, DRB1*01:01,; also recorded: DRB1*07:01”; the Dominant entry is “Yes (more dominant epitopes are defined by being recognized by 3 or more donors/different studies)”; the Restriction entry is on record as “CD4”.

For 44 (LGASQRVAGDSGFAA) [compound 44], the Dominant entry is “Yes (more dominant epitopes are defined by being recognized by 3 or more donors/different studies)” and the Restriction result was “CD4”.

With 45 (RVAGDSGFAAYSRYR) [compound 45], the Restriction entry was “CD4”.

In the case of 46 (SGFAAYSRYRIGNYK) [compound 46], the “Allele(s)” value is on record as “DRB1*15:01”, the Dominant entry is listed as “Yes (more dominant epitopes are defined by being recognized by 3 or more donors/different studies)” and the Restriction entry is recorded as “CD4”.

On to 47 (YSRYRIGNYKLNTDH) [compound 47], for which the Restriction entry is “CD4”.

Consider 48 (IGNYKLNTDHSSSSD) [compound 48], for which the “Allele(s)” value is “DRB1*03:01” and the Restriction entry is “CD4”.

Take 49 (LNTDHSSSSDNIALL) [compound 49]: the Restriction result is given as “CD4”.

For the substance 50 (PQNQRNAPRITFGGP) [compound 50], the Restriction entry is “CD4”.

Consider 51 (NAPRITFGGPSDSTG) [compound 51], for which the “Allele(s)” value is recorded as “DQB1*03:01” and the Restriction entry was “CD4”.

On to 52 (TFGGPSDSTGSNQNG) [compound 52], for which the “Allele(s)” value is “DQB1*03:01” and the Restriction entry is “CD4”.

Consider 53 (ASWFTALTQHGKEDL) [compound 53], for which the Dominant result is given as “Yes (more dominant epitopes are defined by being recognized by 3 or more donors/different studies)” and the Restriction entry was “CD4”.

Regarding 54 (SWFTALTQHGKEDLK) [compound 54], the Dominant entry is given as “Yes (more dominant epitopes are defined by being recognized by 3 or more donors/different studies)” and the Restriction result is listed as “CD4”.

In the case of 55 (LTQHGKEDLKFPRGQ) [compound 55], the Restriction entry was “CD4”.

As for 56 (FPRGQGVPINTNSSP) [compound 56], the Restriction entry was “CD4”.

Turning to 57 (GVPINTNSSPDDQIG) [compound 57], the Restriction result is reported as “CD4”.

For the substance 58 (DDQIGYYRRATRRIR) [compound 58], the “Allele(s)” value is reported as “DRB1*01:03, DRB1*07:01,; also recorded: DRB1*13:01, DRB1*14:01,; also recorded: DRB1*14:06, DRB1*15:01,; also recorded: DRB1*16:02”; the Dominant result is “Yes (more dominant epitopes are defined by being recognized by 3 or more donors/different studies)”; the Restriction result is on record as “CD4”.

Take 59 (IGYYRRATRRIRGGD) [compound 59]: the Dominant result is on record as “Yes (more dominant epitopes are defined by being recognized by 3 or more donors/different studies)” and the Restriction entry is listed as “CD4”.

Turning to 60 (YYRRATRRIRGGDGK) [compound 60], the “Allele(s)” value was “DRB1*13:01, DRB1*14:06”; the Dominant entry is on record as “Yes (more dominant epitopes are defined by being recognized by 3 or more donors/different studies)”; the Restriction entry is “CD4”.

Turning to 61 (TRRIRGGDGKMKDLS) [compound 61], the Restriction result is on record as “CD4”.

On to 65 (PRWYFYYLGTGPEAG) [compound 65], for which the “Allele(s)” value is “DQB1*02:01, DQB1*05:03” and the Restriction result is on record as “CD4”.

As for 66 (RWYFYYLGTGPEAGL) [compound 66], the Dominant entry is on record as “Yes (more dominant epitopes are defined by being recognized by 3 or more donors/different studies)” and the Restriction entry is “CD4”.

Regarding 67 (LPYGANKDGIIWVAT) [compound 67], the Restriction result was “CD4”.

Take 68 (NKDGIIWVATEGALN) [compound 68]: the “Allele(s)” value is recorded as “DQB1*02:01, DQB1*02:02,; also recorded: DQB1*03:02, DQB1*05:03,; also recorded: DRB1*04:04, DRB1*07:01”; the Dominant entry is on record as “Yes (more dominant epitopes are defined by being recognized by 3 or more donors/different studies)”; the Restriction entry is reported as “CD4”.

On to 69 (KDGIIWVATEGALNT) [compound 69], for which the Dominant entry is “Yes (more dominant epitopes are defined by being recognized by 3 or more donors/different studies)” and the Restriction entry is on record as “CD4”.

Regarding 70 (IWVATEGALNTPKDH) [compound 70], the Restriction result was “CD4”.

As to 71 (EGALNTPKDHIGTRN) [compound 71], the Restriction result is recorded as “CD4”.

Regarding 72 (AIVLQLPQGTTLPKG) [compound 72], the Dominant entry is “Yes (more dominant epitopes are defined by being recognized by 3 or more donors/different studies)” and the Restriction result was “CD4”.

With 73 (AGNGGDAALALLLLD) [compound 73], the “Allele(s)” value is on record as “DQB1*03:01, DQB1*06:02”; the Dominant entry is on record as “Yes (more dominant epitopes are defined by being recognized by 3 or more donors/different studies)”; the Restriction entry is given as “CD4”.

For the substance 74 (DAALALLLLDRLNQL) [compound 74], the “Allele(s)” value is “DQB1*05:01, DQB1*05:03,; also recorded: DQB1*06:02, DRB1*03:01,; also recorded: DRB1*11:01, DRB1*12:01,; also recorded: DRB1*14:01, DRB1*15:01”; the Dominant entry is given as “Yes (more dominant epitopes are defined by being recognized by 3 or more donors/different studies)”; the Restriction result was “CD4”.

For 75 (LLLLDRLNQLESKMS) [compound 75], the “Allele(s)” value is “DQB1*05:01, DRB1*03:01,; also recorded: DRB1*11:01, DRB1*12:01,; also recorded: DRB1*14:01, DRB1*15:01”; the Dominant entry is “Yes (more dominant epitopes are defined by being recognized by 3 or more donors/different studies)”; the Restriction entry is on record as “CD4”.

As for 76 (GKGQQQQGQTVTKKS) [compound 76], the Restriction entry was “CD4”.

As to 77 (AAEASKKPRQKRTAT) [compound 77], the Dominant entry is “Yes (more dominant epitopes are defined by being recognized by 3 or more donors/different studies)” and the Restriction result is reported as “CD4”.

Turning to 78 (KKPRQKRTATKAYNV) [compound 78], the Dominant entry is given as “Yes (more dominant epitopes are defined by being recognized by 3 or more donors/different studies)” and the Restriction result is given as “CD4”.

With 79 (KPRQKRTATKAYNVT) [compound 79], the “Allele(s)” value was “DPB1*14:01” and the Restriction entry is “CD4”.

As to 80 (KRTATKAYNVTQAFG) [compound 80], the “Allele(s)” value is listed as “DQB1*06:02, DQB1*06:03”; the Dominant entry is “Yes (more dominant epitopes are defined by being recognized by 3 or more donors/different studies)”; the Restriction entry was “CD4”.

For 82 (TQAFGRRGPEQTQGN) [compound 82], the Restriction entry is “CD4”.

On to 83 (RRGPEQTQGNFGDQE) [compound 83], for which the Restriction result is given as “CD4”.

As to 84 (FGDQELIRQGTDYKH) [compound 84], the Restriction result is reported as “CD4”.

As to 85 (LIRQGTDYKHWPQIA) [compound 85], the Dominant entry is reported as “Yes (more dominant epitopes are defined by being recognized by 3 or more donors/different studies)” and the Restriction entry is “CD4”.

In the case of 86 (TDYKHWPQIAQFAPS) [compound 86], the Restriction result is “CD4”.

As for 87 (YKHWPQIAQFAPSAS) [compound 87], the Dominant entry is recorded as “Yes (more dominant epitopes are defined by being recognized by 3 or more donors/different studies)” and the Restriction result was “CD4”.

As to 88 (WPQIAQFAPSASAFF) [compound 88], the “Allele(s)” value is reported as “DQB1*02:02, DQB1*05:03,; also recorded: DRB1*04:04, DRB1*07:01,; also recorded: DRB1*15:01”; the Dominant result was “Yes (more dominant epitopes are defined by being recognized by 3 or more donors/different studies)”; the Restriction entry is “CD4”.

Turning to 89 (QFAPSASAFFGMSRI) [compound 89], the “Allele(s)” value is “DRB1*07:01” and the Restriction result is “CD4”.

As to 90 (ASAFFGMSRIGMEVT) [compound 90], the “Allele(s)” value is “DQB1*05:03, DRB1*01:02,; also recorded: DRB1*14:01”; the Dominant entry is listed as “Yes (more dominant epitopes are defined by being recognized by 3 or more donors/different studies)”; the Restriction result is listed as “CD4”.

Consider 91 (AFFGMSRIGMEVTPS) [compound 91], for which the Restriction result is “CD4”.

As to 92 (GMEVTPSGTWLTYTGAIKLD) [compound 92], the Dominant entry is reported as “Yes (more dominant epitopes are defined by being recognized by 3 or more donors/different studies)” and the Restriction entry was “CD4”.

Regarding 93 (GMEVTPSGTWLTYTG) [compound 93], the Restriction entry was “CD4”.

94 (PSGTWLTYTGAIKLD) [compound 94]: the “Allele(s)” value is “DQB1*06:03, DRB1*01:02,; also recorded: DRB1*01:03, DRB1*07:01,; also recorded: DRB1*15:01”; the Dominant entry is “Yes (more dominant epitopes are defined by being recognized by 3 or more donors/different studies)”; the Restriction entry is “CD4”.
